The NIST ThermoML archive (doi:10.1016/j.jct.2006.01.012)

Test: xn = mol fraction of the nth substance listed
Details: Liquid; for viscosity: Capillary tube (Ostwald / Ubbelohde) method; for mass density: isochoric method

CCCCCCCC [octane] + CCCCCCC
Details	mass density [kg/m3]	viscosity [mPa·s]
373.19 K, 5000 kPa, x2 = 0.7906	–	0.217
373.19 K, 10000 kPa, x2 = 0.7906	–	0.23
373.51 K, 5000 kPa, x2 = 0.2808	–	0.241
373.51 K, 10000 kPa, x2 = 0.2808	–	0.255
373.97 K, 5000 kPa, x2 = 0.5427	–	0.227
373.97 K, 10000 kPa, x2 = 0.5427	–	0.24
374.79 K, 3256 kPa, x2 = 0.2808	634.7	–
374.79 K, 8081 kPa, x2 = 0.2808	641.5	–
374.79 K, 9316 kPa, x2 = 0.2808	643.1	–
380.43 K, 3110 kPa, x2 = 0.5427	623.5	–
380.43 K, 5712 kPa, x2 = 0.5427	628.4	–
380.43 K, 8743 kPa, x2 = 0.5427	633.1	–
380.43 K, 10230 kPa, x2 = 0.5427	635.1	–
382.99 K, 5000 kPa, x2 = 0.2808	–	0.223
382.99 K, 10000 kPa, x2 = 0.2808	–	0.237
383.18 K, 5000 kPa, x2 = 0.5427	–	0.212
383.18 K, 10000 kPa, x2 = 0.5427	–	0.224
384.55 K, 5000 kPa, x2 = 0.7906	–	0.198
384.55 K, 10000 kPa, x2 = 0.7906	–	0.211
386.91 K, 3743 kPa, x2 = 0.7906	612.4	–
386.91 K, 5902 kPa, x2 = 0.7906	616.6	–
386.91 K, 8793 kPa, x2 = 0.7906	621.6	–
386.91 K, 10710 kPa, x2 = 0.7906	624.7	–
393.49 K, 5000 kPa, x2 = 0.2808	–	0.206
393.49 K, 10000 kPa, x2 = 0.2808	–	0.22
394.51 K, 5000 kPa, x2 = 0.5427	–	0.195
394.51 K, 10000 kPa, x2 = 0.5427	–	0.206
395.52 K, 5000 kPa, x2 = 0.7906	–	0.183
395.52 K, 10000 kPa, x2 = 0.7906	–	0.195
401.28 K, 4100 kPa, x2 = 0.7906	601.1	–
401.28 K, 6833 kPa, x2 = 0.7906	606.2	–
401.28 K, 9204 kPa, x2 = 0.7906	610.3	–
401.28 K, 10510 kPa, x2 = 0.7906	612.5	–
401.4 K, 4751 kPa, x2 = 0.2808	614.2	–
401.4 K, 7120 kPa, x2 = 0.2808	618	–
401.4 K, 9310 kPa, x2 = 0.2808	621.7	–
403.23 K, 5000 kPa, x2 = 0.5427	–	0.183
403.23 K, 10000 kPa, x2 = 0.5427	–	0.193
407.72 K, 5000 kPa, x2 = 0.7906	–	0.167
407.72 K, 10000 kPa, x2 = 0.7906	–	0.18
409.59 K, 3334 kPa, x2 = 0.5427	598	–
409.59 K, 7257 kPa, x2 = 0.5427	606.1	–
409.59 K, 9316 kPa, x2 = 0.5427	609.6	–
413.6 K, 5000 kPa, x2 = 0.2808	–	0.178
413.6 K, 10000 kPa, x2 = 0.2808	–	0.191
415.96 K, 5000 kPa, x2 = 0.5427	–	0.167
415.96 K, 10000 kPa, x2 = 0.5427	–	0.177
423.23 K, 3334 kPa, x2 = 0.7906	578.1	–
423.23 K, 7433 kPa, x2 = 0.7906	587.6	–
423.23 K, 9708 kPa, x2 = 0.7906	592.4	–
424.45 K, 5000 kPa, x2 = 0.7906	–	0.149
424.45 K, 10000 kPa, x2 = 0.7906	–	0.16
424.48 K, 4903 kPa, x2 = 0.5427	588.7	–
424.48 K, 7108 kPa, x2 = 0.5427	592.8	–
424.48 K, 9298 kPa, x2 = 0.5427	597.1	–
424.55 K, 5000 kPa, x2 = 0.5427	–	0.158
424.55 K, 10000 kPa, x2 = 0.5427	–	0.167
429.34 K, 3511 kPa, x2 = 0.2808	585.6	–
429.34 K, 8237 kPa, x2 = 0.2808	595.9	–
429.34 K, 9630 kPa, x2 = 0.2808	598.7	–
432.62 K, 5000 kPa, x2 = 0.2808	–	0.156
432.62 K, 10000 kPa, x2 = 0.2808	–	0.168
433.62 K, 5000 kPa, x2 = 0.5427	–	0.148
433.62 K, 10000 kPa, x2 = 0.5427	–	0.158
435.62 K, 5000 kPa, x2 = 0.7906	–	0.138
435.62 K, 10000 kPa, x2 = 0.7906	–	0.149
447.3 K, 4808 kPa, x2 = 0.5427	566	–
447.3 K, 6304 kPa, x2 = 0.5427	569.6	–
447.3 K, 9463 kPa, x2 = 0.5427	576.6	–
451.28 K, 3900 kPa, x2 = 0.2808	565.6	–
451.28 K, 5302 kPa, x2 = 0.2808	569	–
451.28 K, 8131 kPa, x2 = 0.2808	576	–
451.28 K, 9621 kPa, x2 = 0.2808	579.7	–
452.73 K, 5000 kPa, x2 = 0.5427	–	0.129
452.73 K, 10000 kPa, x2 = 0.5427	–	0.14
455.3 K, 5000 kPa, x2 = 0.7906	–	0.12
455.3 K, 10000 kPa, x2 = 0.7906	–	0.132
455.63 K, 5000 kPa, x2 = 0.2808	–	0.133
455.63 K, 10000 kPa, x2 = 0.2808	–	0.145
463.18 K, 5000 kPa, x2 = 0.5427	–	0.12
463.18 K, 10000 kPa, x2 = 0.5427	–	0.131
466.55 K, 4570 kPa, x2 = 0.7906	535.1	–
466.55 K, 7593 kPa, x2 = 0.7906	546.3	–
466.55 K, 9885 kPa, x2 = 0.7906	553.4	–
466.78 K, 3177 kPa, x2 = 0.5427	538.3	–
466.78 K, 8649 kPa, x2 = 0.5427	556.8	–
466.78 K, 9963 kPa, x2 = 0.5427	560.6	–
472.52 K, 5000 kPa, x2 = 0.7906	–	0.107
472.52 K, 10000 kPa, x2 = 0.7906	–	0.118
473.1 K, 5000 kPa, x2 = 0.5427	–	0.112
473.1 K, 10000 kPa, x2 = 0.5427	–	0.123
473.46 K, 5000 kPa, x2 = 0.2808	–	0.118
473.46 K, 10000 kPa, x2 = 0.2808	–	0.13
475.85 K, 4354 kPa, x2 = 0.2808	539.5	–
475.85 K, 8492 kPa, x2 = 0.2808	553.8	–
475.85 K, 10120 kPa, x2 = 0.2808	558.1	–
483.92 K, 4703 kPa, x2 = 0.5427	524.2	–
483.92 K, 7131 kPa, x2 = 0.5427	533.5	–
483.92 K, 9423 kPa, x2 = 0.5427	541.6	–
494.74 K, 4250 kPa, x2 = 0.2808	515.8	–
494.74 K, 6032 kPa, x2 = 0.2808	524.3	–
494.74 K, 8734 kPa, x2 = 0.2808	535.5	–
494.74 K, 9220 kPa, x2 = 0.2808	537.5	–
505.34 K, 5217 kPa, x2 = 0.2808	507.7	–
505.34 K, 8904 kPa, x2 = 0.2808	525.4	–
505.34 K, 9807 kPa, x2 = 0.2808	528.4	–
506 K, 5099 kPa, x2 = 0.7906	487.7	–
506 K, 6982 kPa, x2 = 0.7906	499.4	–
506 K, 8492 kPa, x2 = 0.7906	507.2	–
506 K, 9669 kPa, x2 = 0.7906	512.6	–
518.04 K, 4982 kPa, x2 = 0.5427	480.1	–
518.04 K, 7512 kPa, x2 = 0.5427	496.2	–
518.04 K, 8983 kPa, x2 = 0.5427	504.3	–
525.5 K, 4771 kPa, x2 = 0.2808	475.8	–
525.5 K, 5323 kPa, x2 = 0.2808	480.4	–
525.5 K, 7331 kPa, x2 = 0.2808	494.9	–
525.5 K, 9533 kPa, x2 = 0.2808	506.5	–
536.57 K, 5021 kPa, x2 = 0.5427	449.5	–
536.57 K, 6931 kPa, x2 = 0.5427	468.1	–
536.57 K, 9621 kPa, x2 = 0.5427	486.1	–
549.34 K, 5394 kPa, x2 = 0.5427	431.7	–
549.34 K, 6766 kPa, x2 = 0.5427	449.2	–
549.34 K, 8689 kPa, x2 = 0.5427	464.6	–
549.34 K, 9708 kPa, x2 = 0.5427	471.9	–
555.9 K, 4982 kPa, x2 = 0.7906	394.1	–
555.9 K, 6198 kPa, x2 = 0.7906	416.1	–
555.9 K, 8649 kPa, x2 = 0.7906	445.5	–
555.9 K, 10240 kPa, x2 = 0.7906	458.1	–
557.23 K, 5296 kPa, x2 = 0.2808	430.4	–
557.23 K, 8238 kPa, x2 = 0.2808	461.5	–
557.23 K, 9885 kPa, x2 = 0.2808	473.3	–
557.23 K, 10790 kPa, x2 = 0.2808	479	–
